Laboratory results published in ChEMBL document CHEMBL1275295, “Synthesis of some p-toluenesulfonyl-hydrazinothiazoles and hydrazino-bis-thiazoles and their anticancer activity” (Eur J Med Chem, 2010).

Legend:
HepG2 [1] = assay: Inhibition of proliferation of human HepG2 cells at 72.5 uM after 72 hrs by XTT assay; format: functional; settings: HepG2, 72 h
HepG2 [2] = assay: Inhibition of proliferation of human HepG2 cells at 44.2 uM after 72 hrs by XTT assay; format: functional; settings: HepG2, 72 h
HepG2 [3] = assay: Inhibition of proliferation of human HepG2 cells after 72 hrs by XTT assay; format: functional, cell-based; settings: HepG2, 72 h
DU-145 [4] = assay: Inhibition of proliferation of human DU145 cells at 102 uM after 72 hrs by XTT assay; format: functional; settings: DU-145, 72 h
DU-145 [5] = assay: Inhibition of proliferation of human DU145 cells after 72 hrs by XTT assay; format: functional, cell-based; settings: DU-145, 72 h
DU-145 [6] = assay: Inhibition of proliferation of human DU145 cells at 44.2 uM after 72 hrs by XTT assay; format: functional; settings: DU-145, 72 h
HepG2 [7] = assay: Inhibition of proliferation of human HepG2 cells at 36.2 uM after 72 hrs by XTT assay; format: functional; settings: HepG2, 72 h
HepG2 [8] = assay: Inhibition of proliferation of human HepG2 cells at 51 uM after 72 hrs by XTT assay; format: functional; settings: HepG2, 72 h
DU-145 [9] = assay: Inhibition of proliferation of human DU145 cells at 36.2 uM after 72 hrs by XTT assay; format: functional; settings: DU-145, 72 h
DU-145 [10] = assay: Inhibition of proliferation of human DU145 cells at 38.5 uM after 72 hrs by XTT assay; format: functional; settings: DU-145, 72 h
DU-145 [11] = assay: Inhibition of proliferation of human DU145 cells at 35.2 uM after 72 hrs by XTT assay; format: functional; settings: DU-145, 72 h
HepG2 [12] = assay: Inhibition of proliferation of human HepG2 cells at 35.2 uM after 72 hrs by XTT assay; format: functional; settings: HepG2, 72 h
DU-145 [13] = assay: Inhibition of proliferation of human DU145 cells at 34.1 uM after 72 hrs by XTT assay; format: functional; settings: DU-145, 72 h
HepG2 [14] = assay: Inhibition of proliferation of human HepG2 cells at 34.1 uM after 72 hrs by XTT assay; format: functional; settings: HepG2, 72 h

Row | IC50 (HepG2 [3]) [µM] | IC50 (DU-145 [5]) [µM] | SMILES | other results
1 | 8.98 | 8.98 | Cc1ccc(S(=O)(=O)NNC(N)=S)cc1 | inhibition at 72.5 µM (HepG2 [1]): 100%; inhibition at 44.2 µM (HepG2 [2]): 100%; inhibition at 102 µM (DU-145 [4]): 100%
2 | < 5.65 | 6.96 | Cc1ccc(S(=O)(=O)NNc2nc(C)cs2)cc1 | inhibition at 44.2 µM (DU-145 [6]): 100%; inhibition at 36.2 µM (HepG2 [7]): 100%
3 | 11.2 | 49.2 | O=C(NNc1nc(CCl)cs1)c1csc(-c2ccccc2)n1 | 
4 | 9.16 | 9.07 | Cc1ccc(S(=O)(=O)NNc2nc(-c3ccccc3)cs2)cc1 | inhibition at 51 µM (HepG2 [8]): 100%; inhibition at 36.2 µM (DU-145 [9]): 100%
5 | 8.77 | 9.84 | CC(=O)c1sc(NNS(=O)(=O)c2ccc(C)cc2)nc1C | inhibition at 38.5 µM (DU-145 [10]): 100%
6 | < 4.51 | 4.68 | CCOC(=O)c1sc(NNS(=O)(=O)c2ccc(C)cc2)nc1C | inhibition at 35.2 µM (DU-145 [11]): 100%; inhibition at 35.2 µM (HepG2 [12]): 100%
7 | 7.36 | 7.63 | CC(=O)N(c1nc(C)cs1)N(C(C)=O)S(=O)(=O)c1ccc(C)cc1 | inhibition at 34.1 µM (DU-145 [13]): 100%; inhibition at 34.1 µM (HepG2 [14]): 100%
8 | > 62.3 | > 62.3 | CC(=O)N(c1nc(CCl)cs1)N(C(C)=O)S(=O)(=O)c1ccc(C)cc1 | 
9 | > 58.3 | > 58.3 | CC(=O)N(c1nc(-c2ccccc2)cs1)N(C(C)=O)S(=O)(=O)c1ccc(C)cc1 | 
10 | 57.4 | 53.5 | CC(=O)c1sc(N(C(C)=O)N(C(C)=O)S(=O)(=O)c2ccc(C)cc2)nc1C | 
11 | > 57 | > 57 | CCOC(=O)c1sc(N(C(C)=O)N(C(C)=O)S(=O)(=O)c2ccc(C)cc2)nc1C | 
12 | 11 | 46.4 | CCOC(=O)Cc1csc(N(C(C)=O)N(C(C)=O)S(=O)(=O)c2ccc(C)cc2)n1 | 
13 | > 58.1 | > 58.1 | CCOC(=O)Cc1csc(N(NC(=O)c2csc(-c3ccccc3)n2)C(C)=O)n1 | 
14 | < 2.94 | < 2.94 | COc1cccc2c1C(=O)c1c(O)c3c(c(O)c1C2=O)C[C@@](O)(C(=O)CO)C[C@@H]3O[C@H]1C[C@H](N)[C@H](O)[C@H](C)O1 [DOXORUBICIN] | 
